In one test the test system is nonsense mutation R213X. As to the kind of experiment: pAC99 dual reporter readthrough in HeLa cells, R213X. In kind it is cell-based, human. The following applies: 24 hours. As to the method: (§1) Different compounds of the invention have been tested for their ability to induce readthrough on the nonsense mutation W1268X or R213X in HeLa cells.
(§2) To this aim the inventors used the pAC99 dual reporter plasmid. This dual reporter is used to quantify stop-codon readthrough through the measurement of luciferase and beta-galactosidase (internal normalisation) activities. Readthrough levels for nonsense mutations were analysed in the presence or absence of tested molecules. Cells are seeded in a 6-well plate. The next day, cells are transfected with the reporter plasmid using the JetPei reagent (Invitrogen). The following day, they are rinsed with fresh medium, with or without readthrough inducers. Cells were harvested 24 hours later, with trypsin—EDTA (Invitrogen), lysed with Glo lysis buffer (Promega) and beta-galactosidase and luciferase activities were assayed as previously described. Readthrough efficiency was estimated by calculating the ratio of luciferase activity to beta-galactosidase activity obtained with the test construct, with normalisation against an in-frame control construct. At least five independent transfection experiments were performed for each assay.

Test [1] relates to -1 programmed ribosomal frameshifting from HIV-1. The experiment in a line: Frameshifting test, dual reporter, NIH3T3 cells. Format: cell-based, mouse. The following applies: NIH3T3, TLN68 80 μM, HIV-1 frameshift signal. As to the method: To determinate if TLN68 alter global translational fidelity or if it is specific of readthrough event the inventors tested capacity of this molecule to induce frameshifting. They used a frameshift target which have already been used to study the minus1 frameshift signal of the retrovirus HIV-1 (Stahl et al, 1995). This 54 nucleotide sequence was inserted in the dual reporter vector and used to transfect NIH3T3 cells. Transfected cells were treated or not with TLN68 at 80 μM.

Another test relates to nonsense mutation W1268X. As to the kind of experiment: pAC99 dual reporter readthrough in HeLa cells, W1268X. Format: cell-based, human. The following applies: 24 hours. As to the method: as §1, §2

As to `Cc1nc(NC(=N)N)nc2ccccc12` [TLN68], the “Inducting factor of readthrough as compared to untreated cells (measured on nonsense mutation R213X)” value in the test with nonsense mutation R213X is listed as 14. The “impact on -1 translational frameshifting” value in test [1] is “no impact on translational frameshifting”. Also, the “Inducting factor of readthrough as compared to untreated cells (measured on nonsense mutation W1268X)” value in the test with nonsense mutation W1268X was 9.

Values taken from patent US20230183187A1, “QUINAZOLINE COMPOUNDS AS INHIBITORS OF PREMATURE TERMINATION CODONS” (CENTRE NATIONAL DE LA RECHERCHE SCIENTIFIQUE, priority 2020, published 2023).
